Active and inactive are the calls of the source. No cut-off for these calls is given here.
Tests used:
[1] = target: Beta-2 adrenergic receptor (Homo sapiens, UniProt P07550); settings: Compound concentration 10.0 uM
D(3) dopamine receptor = D(3) dopamine receptor (Homo sapiens, UniProt P35462); experiment: GPCRScan assay: inhibition of D3; set-up: radioligand conc. used [nm] 0.5 – 1.8, parental cells HEKT
[2] = target: ATPase family AAA domain-containing protein 2 (Homo sapiens, UniProt Q6PL18); experiment: ATAD2A DiscoverX BROMOscan
ATPase family AAA domain-containing protein 2, sequence (Q6PL18 whole entry, the tested form may be a part): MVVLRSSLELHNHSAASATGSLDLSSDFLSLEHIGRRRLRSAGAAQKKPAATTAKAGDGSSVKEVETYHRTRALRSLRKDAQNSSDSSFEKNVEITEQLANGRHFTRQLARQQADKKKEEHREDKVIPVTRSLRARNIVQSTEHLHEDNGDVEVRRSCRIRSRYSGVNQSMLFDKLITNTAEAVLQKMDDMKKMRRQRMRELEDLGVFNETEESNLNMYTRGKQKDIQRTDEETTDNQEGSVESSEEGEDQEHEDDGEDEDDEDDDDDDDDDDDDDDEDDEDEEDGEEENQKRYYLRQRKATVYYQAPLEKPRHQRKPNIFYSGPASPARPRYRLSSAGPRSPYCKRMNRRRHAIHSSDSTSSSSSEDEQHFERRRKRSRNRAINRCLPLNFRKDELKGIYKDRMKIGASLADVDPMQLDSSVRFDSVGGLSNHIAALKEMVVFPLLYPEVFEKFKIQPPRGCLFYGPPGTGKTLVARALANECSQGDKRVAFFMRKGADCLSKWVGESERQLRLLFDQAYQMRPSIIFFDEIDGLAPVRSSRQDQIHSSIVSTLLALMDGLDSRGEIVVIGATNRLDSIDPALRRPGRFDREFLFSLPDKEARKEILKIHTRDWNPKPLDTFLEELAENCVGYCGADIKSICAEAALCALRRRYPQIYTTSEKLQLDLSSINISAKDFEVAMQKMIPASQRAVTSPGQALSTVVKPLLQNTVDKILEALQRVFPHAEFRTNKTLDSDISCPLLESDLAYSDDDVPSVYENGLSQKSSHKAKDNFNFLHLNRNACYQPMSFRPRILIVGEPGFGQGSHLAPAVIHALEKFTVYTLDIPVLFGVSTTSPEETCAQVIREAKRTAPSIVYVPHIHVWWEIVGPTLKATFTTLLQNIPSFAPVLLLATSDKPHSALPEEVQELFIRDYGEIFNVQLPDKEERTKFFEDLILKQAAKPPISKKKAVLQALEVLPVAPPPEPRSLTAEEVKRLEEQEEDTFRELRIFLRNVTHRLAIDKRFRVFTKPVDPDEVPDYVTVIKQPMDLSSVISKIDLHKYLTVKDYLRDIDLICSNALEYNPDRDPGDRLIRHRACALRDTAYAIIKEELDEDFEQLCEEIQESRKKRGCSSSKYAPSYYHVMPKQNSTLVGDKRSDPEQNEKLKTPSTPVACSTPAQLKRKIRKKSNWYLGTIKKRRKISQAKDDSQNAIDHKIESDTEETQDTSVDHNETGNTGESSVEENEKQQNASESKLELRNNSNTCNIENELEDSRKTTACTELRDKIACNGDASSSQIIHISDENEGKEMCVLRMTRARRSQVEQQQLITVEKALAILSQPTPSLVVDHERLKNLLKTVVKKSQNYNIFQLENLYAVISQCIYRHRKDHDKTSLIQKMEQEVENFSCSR

[3] = target: Alpha-2C adrenergic receptor (Homo sapiens) (UniProt P18825); settings: Compound concentration 10.0 uM
[4] = target: 5-hydroxytryptamine receptor 3A (Homo sapiens) (UniProt P46098); settings: Compound concentration 10.0 uM
[5] = target: T1, Bromodomain-containing protein 2 (Homo sapiens, UniProt P25440); experiment: BRD2 Bromoscan (DiscoverX)
Target sequence in this assay (P25440 whole entry): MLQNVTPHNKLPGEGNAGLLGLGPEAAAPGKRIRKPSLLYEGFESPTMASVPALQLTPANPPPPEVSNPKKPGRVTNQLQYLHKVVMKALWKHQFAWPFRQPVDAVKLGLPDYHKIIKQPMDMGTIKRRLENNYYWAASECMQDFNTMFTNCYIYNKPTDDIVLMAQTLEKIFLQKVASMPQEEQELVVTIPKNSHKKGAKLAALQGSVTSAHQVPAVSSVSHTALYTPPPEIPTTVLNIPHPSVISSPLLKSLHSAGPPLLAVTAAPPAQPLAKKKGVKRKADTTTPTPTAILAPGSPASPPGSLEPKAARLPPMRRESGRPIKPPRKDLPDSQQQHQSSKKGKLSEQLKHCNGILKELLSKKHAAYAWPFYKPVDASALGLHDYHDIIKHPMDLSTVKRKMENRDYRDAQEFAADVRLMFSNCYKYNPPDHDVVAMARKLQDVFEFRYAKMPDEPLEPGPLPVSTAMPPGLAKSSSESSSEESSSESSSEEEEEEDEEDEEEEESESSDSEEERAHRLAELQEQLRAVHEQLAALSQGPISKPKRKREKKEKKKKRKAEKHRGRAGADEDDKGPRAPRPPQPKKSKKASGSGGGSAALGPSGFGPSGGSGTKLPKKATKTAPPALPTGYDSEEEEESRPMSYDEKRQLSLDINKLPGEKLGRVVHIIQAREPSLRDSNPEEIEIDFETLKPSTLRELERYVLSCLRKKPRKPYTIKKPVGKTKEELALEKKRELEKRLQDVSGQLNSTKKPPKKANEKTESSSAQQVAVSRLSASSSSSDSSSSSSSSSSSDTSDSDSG

[6] = target: GABA-A receptor; anion channel; experiment: GPCRScan assay: inhibition of GABAA/BZP; format: protein-complex assay, Rattus norvegicus; set-up: radioligand conc. used [nm] 0.6 – 4.0, parental cells brain tissue
[7] = target: Muscarinic acetylcholine receptor M1 (Homo sapiens) (UniProt P11229); settings: Compound concentration 10.0 uM
Muscarinic acetylcholine receptor M1 (Homo sapiens), sequence (P11229 whole entry): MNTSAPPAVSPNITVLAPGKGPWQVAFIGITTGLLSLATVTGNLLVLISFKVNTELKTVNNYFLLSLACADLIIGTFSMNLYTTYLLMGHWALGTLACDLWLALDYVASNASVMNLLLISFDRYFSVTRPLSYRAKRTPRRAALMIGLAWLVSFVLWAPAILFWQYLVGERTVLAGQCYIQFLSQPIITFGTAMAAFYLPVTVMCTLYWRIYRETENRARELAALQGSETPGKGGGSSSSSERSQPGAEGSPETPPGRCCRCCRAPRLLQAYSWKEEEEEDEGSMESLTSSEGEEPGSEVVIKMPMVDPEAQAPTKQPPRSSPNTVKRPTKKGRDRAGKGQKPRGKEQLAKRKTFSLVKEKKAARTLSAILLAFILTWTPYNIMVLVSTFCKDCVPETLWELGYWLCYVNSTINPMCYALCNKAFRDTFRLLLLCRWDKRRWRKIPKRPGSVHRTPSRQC

[8] = target: Muscarinic acetylcholine receptor M3 (Homo sapiens) (UniProt P20309); settings: Compound concentration 10.0 uM
[9] = target: Bromodomain-containing protein 7 (Homo sapiens, UniProt Q9NPI1); experiment: BRD7 DiscoverX BROMOscan
[10] = target: T1, Bromodomain-containing protein 2; experiment: BET mutant TR-FRET assay (BRD2 BD1)
[11] = target: T2, Transcription intermediary factor 1-alpha (Homo sapiens, UniProt O15164); experiment: TRIM24(BROMO.) DiscoverX BROMOscan
T2 sequence (O15164 whole entry): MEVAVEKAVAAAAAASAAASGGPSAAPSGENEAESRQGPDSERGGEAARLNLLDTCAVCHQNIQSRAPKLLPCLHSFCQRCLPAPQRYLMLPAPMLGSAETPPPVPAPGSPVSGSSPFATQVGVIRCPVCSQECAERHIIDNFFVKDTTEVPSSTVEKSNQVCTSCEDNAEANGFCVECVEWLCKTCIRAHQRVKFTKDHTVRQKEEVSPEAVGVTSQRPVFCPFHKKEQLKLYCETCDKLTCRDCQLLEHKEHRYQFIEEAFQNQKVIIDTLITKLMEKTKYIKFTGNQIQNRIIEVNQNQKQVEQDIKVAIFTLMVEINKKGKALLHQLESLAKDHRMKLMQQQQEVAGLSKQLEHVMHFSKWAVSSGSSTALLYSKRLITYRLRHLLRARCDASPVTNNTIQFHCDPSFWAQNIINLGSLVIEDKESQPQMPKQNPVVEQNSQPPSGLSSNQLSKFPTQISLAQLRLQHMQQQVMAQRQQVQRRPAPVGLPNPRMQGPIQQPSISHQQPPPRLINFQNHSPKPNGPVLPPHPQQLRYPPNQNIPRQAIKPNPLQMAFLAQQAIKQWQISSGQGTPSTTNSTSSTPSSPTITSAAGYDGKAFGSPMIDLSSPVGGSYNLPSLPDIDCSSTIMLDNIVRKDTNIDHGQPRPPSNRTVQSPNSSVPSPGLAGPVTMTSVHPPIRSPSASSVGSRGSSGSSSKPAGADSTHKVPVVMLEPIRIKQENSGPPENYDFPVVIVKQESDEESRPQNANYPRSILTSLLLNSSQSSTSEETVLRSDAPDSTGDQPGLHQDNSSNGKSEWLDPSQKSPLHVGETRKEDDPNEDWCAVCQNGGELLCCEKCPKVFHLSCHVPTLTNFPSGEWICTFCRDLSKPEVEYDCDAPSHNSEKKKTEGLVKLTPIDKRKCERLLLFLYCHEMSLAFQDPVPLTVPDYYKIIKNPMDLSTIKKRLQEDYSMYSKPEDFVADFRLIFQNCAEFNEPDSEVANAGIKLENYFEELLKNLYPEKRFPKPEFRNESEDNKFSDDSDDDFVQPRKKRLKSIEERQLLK

[12] = target: Muscarinic acetylcholine receptor M2 (Homo sapiens) (UniProt P08172); settings: Compound concentration 10.0 uM
Muscarinic acetylcholine receptor M2 (Homo sapiens), sequence (P08172 whole entry): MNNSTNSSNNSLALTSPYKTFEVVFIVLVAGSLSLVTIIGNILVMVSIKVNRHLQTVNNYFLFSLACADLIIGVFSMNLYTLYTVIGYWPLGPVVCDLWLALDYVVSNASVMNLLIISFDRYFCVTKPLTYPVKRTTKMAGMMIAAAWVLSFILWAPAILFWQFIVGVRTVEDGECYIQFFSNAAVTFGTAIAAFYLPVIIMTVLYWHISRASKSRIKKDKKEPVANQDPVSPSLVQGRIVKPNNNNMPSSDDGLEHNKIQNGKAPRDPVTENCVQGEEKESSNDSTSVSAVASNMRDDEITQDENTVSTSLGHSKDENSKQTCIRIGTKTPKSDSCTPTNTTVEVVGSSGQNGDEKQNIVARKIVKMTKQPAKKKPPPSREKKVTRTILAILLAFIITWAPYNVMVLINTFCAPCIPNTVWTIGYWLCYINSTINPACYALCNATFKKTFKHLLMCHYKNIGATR

[13] = target: Sodium-dependent dopamine transporter (Homo sapiens) (UniProt Q01959); settings: Compound concentration 10.0 uM
[14] = target: Sigma non-opioid intracellular receptor 1 (Homo sapiens) (UniProt Q99720); settings: Compound concentration 10.0 uM
Mu-type opioid receptor = Mu-type opioid receptor (Homo sapiens, UniProt P35372); settings: Compound concentration 10.0 uM
[15] = target: T1, Bromodomain-containing protein 2; experiment: TR-FRET assay (BRD2 BD2)
Target sequence in this assay (P25440 whole entry): as the sequence (P25440 whole entry) above

[16] = target: 5-hydroxytryptamine receptor 1B (Homo sapiens, UniProt P28222); settings: Compound concentration 10.0 uM
[17] = target: T2, Transcription intermediary factor 1-alpha; experiment: TRIM24(PHD,Bromo.) DiscoverX BROMOscan
[18] = target: ATPase family AAA domain-containing protein 2B (Homo sapiens, UniProt Q9ULI0); experiment: ATAD2B DiscoverX BROMOscan
[19] = target: T3, 5-hydroxytryptamine receptor 3A (Homo sapiens, UniProt P46098); experiment: GPCRScan assay: inhibition of 5-HT3; set-up: radioligand conc. used [nm] 1.0 – 2.0, parental cells HEKT
T3 sequence (P46098 whole entry): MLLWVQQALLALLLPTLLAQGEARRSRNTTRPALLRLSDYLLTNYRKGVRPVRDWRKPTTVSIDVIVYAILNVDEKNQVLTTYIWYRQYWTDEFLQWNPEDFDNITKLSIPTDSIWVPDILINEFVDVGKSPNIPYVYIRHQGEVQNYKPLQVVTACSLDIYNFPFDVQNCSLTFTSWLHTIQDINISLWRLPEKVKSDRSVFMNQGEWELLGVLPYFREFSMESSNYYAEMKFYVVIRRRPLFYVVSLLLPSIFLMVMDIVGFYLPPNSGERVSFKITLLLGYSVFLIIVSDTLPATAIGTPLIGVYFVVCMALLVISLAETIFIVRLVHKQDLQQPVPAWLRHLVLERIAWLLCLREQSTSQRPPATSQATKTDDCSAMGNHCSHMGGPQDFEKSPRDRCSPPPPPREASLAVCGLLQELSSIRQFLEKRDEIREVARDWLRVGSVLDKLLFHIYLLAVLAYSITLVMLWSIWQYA

[20] = target: D(1B) dopamine receptor (Homo sapiens) (UniProt P21918); settings: Compound concentration 10.0 uM
[21] = target: Bromodomain-containing protein 3 (Homo sapiens, UniProt Q15059); experiment: TR-FRET assay (BRD3 BD2)
[22] = target: Bromodomain and PHD finger-containing protein 3 (Homo sapiens, UniProt Q9ULD4); experiment: BRPF3 DiscoverX BROMOscan
CREB-binding protein = CREB-binding protein (Homo sapiens, UniProt Q92793); experiment: CREBBP DiscoverX BROMOscan
Peregrin = Peregrin (Homo sapiens, UniProt P55201); experiment: BRPF1 DiscoverX BROMOscan

D(3) dopamine receptor, sequence (P35462 whole entry, the tested form may be a part): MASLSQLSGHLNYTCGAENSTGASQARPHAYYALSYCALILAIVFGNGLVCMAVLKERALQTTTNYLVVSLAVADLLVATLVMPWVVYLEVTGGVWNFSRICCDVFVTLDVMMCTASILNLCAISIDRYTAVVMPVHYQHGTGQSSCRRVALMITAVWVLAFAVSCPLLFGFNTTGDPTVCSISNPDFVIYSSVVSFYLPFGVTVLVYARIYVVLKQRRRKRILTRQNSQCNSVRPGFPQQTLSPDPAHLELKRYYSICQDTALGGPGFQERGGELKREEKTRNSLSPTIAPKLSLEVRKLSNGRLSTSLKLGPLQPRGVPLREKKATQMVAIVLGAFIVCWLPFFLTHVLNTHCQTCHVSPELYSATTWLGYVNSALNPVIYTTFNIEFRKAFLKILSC
Beta-2 adrenergic receptor, sequence (P07550 whole entry, looked up): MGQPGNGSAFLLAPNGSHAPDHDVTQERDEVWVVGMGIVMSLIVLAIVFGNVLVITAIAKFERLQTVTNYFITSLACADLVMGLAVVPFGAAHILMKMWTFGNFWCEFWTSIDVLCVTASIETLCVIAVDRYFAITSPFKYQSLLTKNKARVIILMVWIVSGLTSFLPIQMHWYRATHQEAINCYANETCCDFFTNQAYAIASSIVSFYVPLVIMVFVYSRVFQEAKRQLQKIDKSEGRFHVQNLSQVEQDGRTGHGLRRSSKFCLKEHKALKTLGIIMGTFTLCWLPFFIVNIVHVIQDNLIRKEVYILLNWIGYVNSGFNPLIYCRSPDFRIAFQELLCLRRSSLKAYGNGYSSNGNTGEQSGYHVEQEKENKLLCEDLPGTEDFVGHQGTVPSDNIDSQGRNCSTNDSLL

## COCc1nc2cnc3cc(-c4c(C)noc4C)c(OC[C@H]4CCNC4)cc3c2n1[C@H](C)c1ccccc1 [GSK778]
[1]
  inhibition: 18.4%
D(3) dopamine receptor; read-out: Ki
  Ki: 0.486 µM
D(3) dopamine receptor; read-out: pKi (converted)
  Ki: 0.407 µM
[2]
  Kd: 30 µM
[3]
  inhibition: 15.3%
[4]
  inhibition: 69.8%
[5]
  Kd: 0.013 µM (active)
[6]
  Ki: 1.97 µM
  pKi: 5.75
[7]
  inhibition: -1.37%
[8]
  inhibition: -3.35%
[9]
  Kd: 30 µM
[10]
  pIC50: 7.1
[11]
  Kd: 30 µM
[12]
  inhibition: 4.05%
[13]
  inhibition: 27.9%
[14]
  inhibition: 38.5%
Mu-type opioid receptor
  inhibition: 16.9%
[15]
  IC50: 3.95 µM (not active)
[16]
  inhibition: 8.66%
[17]
  Kd: 30 µM
[18]
  Kd: 25 µM
[19]
  Ki: 4.46 µM
[20]
  inhibition: 31.7%
[21]
  IC50: 1.21 µM (not active)
[22]
  Kd: 30 µM
CREB-binding protein
  Kd: 3.8 µM
Peregrin
  Kd: 15 µM

Reference: ChEMBL document CHEMBL4630907 (2021)
